Source: ChEMBL document CHEMBL1154847, “Steroidal saponins from Chlorophytum orchidastrum” (J Nat Prod, 2010)

Key:
HCT-116 = experiment: Cytotoxicity against human HCT116 cells by MTT assay; format: functional, cell-based
HT-29 = experiment: Cytotoxicity against human HT-29 cells by MTT assay; format: functional, cell-based

Compound | IC50 (HCT-116) [µM] | IC50 (HT-29) [µM]
C[C@H]1CC[C@@]2(OC1)O[C@H]1C[C@H]3[C@@H]4CC[C@H]5C[C@@H](O[C@@H]6[C@@H](O)[C@H](OC[C@H]7O[C@@H](O[C@@H]8[C@@H](O)[C@H](O[C@H]9[C@H](O)[C@@H](CO)O[C@@H](O[C@@H]%10[C@H](O)[C@@H](O[C@@H]%11O[C@@H](C)[C@H](O)[C@@H](O)[C@H]%11O)[C@H](O)O[C@@H]%10CO)[C@@H]9O[C@@H]9OC[C@H](O)[C@H](O)[C@H]9O)OC[C@H]8O)[C@H](O)[C@@H](O[C@@H]8O[C@H](CO[C@@H]9O[C@@H](CO)[C@H](O)[C@H]9O)[C@@H](O)[C@H](O)[C@H]8O)[C@@H]7O)O[C@H]6CO)CC[C@]5(C)[C@H]4CC[C@]3(C)[C@H]1[C@@H]2C [ORCHIDASTROSIDE C] | 1.35 | 3.6
C[C@H]1CC[C@@]2(OC1)O[C@H]1C[C@H]3[C@@H]4CC[C@H]5C[C@@H](O[C@@H]6[C@@H](O)[C@H](OC[C@H]7O[C@@H](O[C@@H]8[C@@H](O)[C@H](O[C@H]9[C@H](O)[C@@H](CO)O[C@@H](O[C@@H]%10[C@H](O)[C@@H](O)[C@H](O)O[C@@H]%10CO)[C@@H]9O[C@@H]9O[C@H](CO)[C@H](O)[C@H](O)[C@H]9O)O[C@H](CO)[C@H]8O)[C@H](O)[C@@H](O[C@@H]8O[C@H](CO[C@@H]9O[C@@H](CO)[C@H](O)[C@H]9O)[C@@H](O)[C@H](O)[C@H]8O)[C@@H]7O)O[C@H]6CO)[C@H](O)C[C@]5(C)[C@H]4CC[C@]3(C)[C@H]1[C@@H]2C [ORCHIDASTROSIDE E] | 7 | 7
C[C@H]1CC[C@@]2(OC1)O[C@H]1C[C@H]3[C@@H]4CC[C@H]5C[C@@H](O[C@@H]6[C@@H](O)[C@H](OC[C@H]7O[C@@H](O[C@@H]8[C@@H](O)[C@H](O[C@H]9[C@H](O)[C@@H](CO)O[C@@H](O[C@@H]%10[C@H](O)[C@@H](O)[C@H](O)O[C@@H]%10CO)[C@@H]9O[C@@H]9O[C@H](CO)[C@H](O)[C@H](O)[C@H]9O)O[C@H](CO)[C@H]8O)[C@H](O)[C@@H](O[C@@H]8OC[C@@H](O)[C@H](O)[C@H]8O)[C@@H]7O)O[C@H]6CO)[C@H](O)C[C@]5(C)[C@H]4CC[C@]3(C)[C@H]1[C@@H]2C [ORCHIDASTROSIDE F] | 2.12 | 8.87
